# Experimental data: patent US9730447B2, “Fungicidal amides” (E I DU PONT DE NEMOURS AND COMPANY, priority 2013, dated 2017)
# Assays:
# Format in all cases: in vivo
# Botrytis cinerea = experiment: Test A: preventive spray on tomato seedlings, Botrytis cinerea (gray mold), visual disease rating; settings: 100 = 100% disease control, 0 = no control relative to controls, unmarked values
# Source text: General protocol for preparing test suspensions for Tests A-E: the test compounds were first dissolved in acetone in an amount equal to 3% of the final volume and then suspended at the desired concentration (in ppm) in acetone and purified water (50/50 mix by volume) containing 250 ppm of the surfactant Trem® 014 (polyhydric alcohol esters). The resulting test suspensions were then used in Tests A-E. Compounds were sprayed with either a 40 ppm or 10 ppm (*) test suspension to the point of run-off on the test plants which is the equivalent of a rate of 160 g ai/ha or 40 g ai/ha, respectively.
# The test suspension was sprayed to the point of run-off on tomato seedlings. The following day the seedlings were inoculated with a spore suspension of Botrytis cinerea (the causal agent of gray mold on many crops) and incubated in a saturated atmosphere at 20° C. for 48 h, and moved to a growth chamber at 27° C. for 2 days, after which time visual disease ratings were made.
# Results for Tests A-E are given in Table A. In the Table, a rating of 100 indicates 100% disease control and a rating of 0 indicates no disease control (relative to the controls). A dash (-) indicates no test results.
# [1] = tested on: Stagonospora nodorum (also known as Septoria nodorum); experiment: Test B: preventive spray on wheat seedlings, Stagonospora nodorum (wheat glume blotch), visual disease rating; settings: 100 = 100% disease control, 0 = no control, unmarked values
# How it was run: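 Compounds in acetone/water (50/50) with 250 ppm Trem 014 surfactant were sprayed to run-off at 40 ppm (160 g ai/ha) or 10 ppm (40 g ai/ha). Seedlings were inoculated with S. nodorum spores the next day, then held 48 h saturated at 20 °C and 6 days in a growth chamber at 20 °C. Visual rating as % disease control vs untreated.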
# Septoria tritici = experiment: Test C: preventive spray on wheat seedlings, Septoria tritici (wheat leaf blotch), visual disease rating; settings: 100 = 100% disease control, 0 = no control, unmarked values
# How it was run: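 Wheat seedlings sprayed to run-off at 40 ppm or 10 ppm (160 or 40 g ai/ha) in acetone/water with surfactant, inoculated with Septoria tritici spores next day. Held 48 h saturated at 24 °C, then 21 days at 20 °C. Visual rating scored as % disease control relative to controls.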
# [2] = tested on: Puccinia recondite f. sp. tritici; experiment: Test D: preventive spray on wheat seedlings, Puccinia recondite f. sp. tritici (wheat leaf rust), visual disease rating; settings: 100 = 100% disease control, 0 = no control, unmarked values
# How it was run: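 Wheat seedlings sprayed to run-off with 40 ppm (160 g ai/ha) or 10 ppm (40 g ai/ha) suspension in acetone/water with 250 ppm surfactant, inoculated next day with leaf rust spores. After 24 h saturated at 20 °C then 6 days at 20 °C, visual rating of disease control (0–100) relative to controls.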
# [3] = tested on: Erysiphe graminis f. sp. tritici; experiment: Test E: preventive spray on wheat seedlings, Erysiphe graminis f. sp. tritici (wheat powdery mildew), visual disease rating; settings: 100 = 100% disease control, 0 = no control, unmarked values
# How it was run: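 Wheat seedlings were sprayed to run-off with 40 or 10 ppm suspension (160 or 40 g ai/ha) and dusted with spores the next day. They were then kept 8 days at 20 °C. Disease was rated visually as % control relative to untreated controls (0–100).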
SMILES,Test A disease control rating (Botrytis cinerea) [%],Test B disease control rating [1] [%],Test C disease control rating (Septoria tritici) [%],Test D disease control rating [2] [%],Test E disease control rating [3] [%]
COc1cc(OC)cc(-c2cnn(-c3ccc(-c4ccccc4NC(=O)c4cn(C)nc4C(F)F)cn3)c2)c1 [compound 10],100,100,100,100,97
Cc1cnn(-c2ccc(-c3ccccc3NC(=O)c3ncccc3Cl)cn2)c1 [compound 46],21,0,8,97,0
O=C(Nc1ccccc1-c1ccc(-n2cc(Br)cn2)nc1)c1ncccc1Cl [compound 47],91,0,82,100,0
O=C(Nc1ccccc1-c1cnc(-n2cc(Cl)cn2)c(F)c1)c1ncccc1C(F)(F)F [compound 70],99,99,100,100,100
Cc1cnn(-c2ccc(-c3ccccc3NC(=O)c3ccccc3C(F)(F)F)cn2)c1 [compound 43],94,99,98,74,92
COc1cc(OC)cc(C2CC(c3ccc(-c4ccccc4NC(=O)c4ncccc4C(F)(F)F)cn3)=NO2)c1 (racemic) [compound 20],89,100,96,99,0
O=C(Nc1ccccc1-c1ccc(-n2cc(Cl)cn2)nc1)c1ccccc1C(F)(F)F [compound 66],32,0,18,89,0
O=C(Nc1ccccc1-c1ccc(-n2ccc(C(F)(F)F)n2)nc1)c1nccnc1C(F)(F)F [compound 24],99,100,100,100,100
O=C(Nc1ccccc1-c1cnc(-n2ccc(Br)n2)c(F)c1)c1ncccc1C(F)(F)F [compound 71],94,100,100,100,100
O=C(Nc1ccccc1-c1ccc(C2=NOC(c3cccc(F)c3)C2)nc1)c1ncccc1C(F)(F)F (racemic) [compound 17],98,100,100,99,0
COc1ccc(-c2ccn(-c3ccc(-c4ccccc4NC(=O)c4cn(C)nc4C(F)F)cn3)n2)c(OC)c1 [compound 100],58,60,87,100,69
Cc1cc(-c2ccccc2NC(=O)c2cn(C)nc2C(F)F)cnc1-n1ccc(C(F)(F)F)n1 [compound 38],90,100,100,100,100
Cn1cc(C(=O)Nc2ccccc2-c2ccc(-n3cc(Br)cn3)nc2)c(C(F)F)n1 [compound 31],100,100,100,100,99
Cn1cc(C(=O)Nc2ccccc2-c2cnc(-n3ccc(C(F)(F)F)n3)c(Cl)c2)c(C(F)F)n1 [compound 35],97,100,100,100,100
N#Cc1ccn(-c2ncc(-c3ccccc3NC(=O)c3ncccc3C(F)(F)F)cc2F)n1 [compound 86],89,0,98,100,79
O=C(Nc1ccccc1-c1ccc(-n2ccc(-c3ccccc3)n2)nc1)c1ncccc1C(F)(F)F [compound 39],45,0,92,92,89
Cc1cc(C)n(-c2ccc(-c3ccccc3NC(=O)c3ncccc3C(F)(F)F)cn2)n1 [compound 52],36,0,99,96,50
Cc1cc(-c2ccccc2NC(=O)c2cn(C)nc2C(F)F)cnc1-n1cc(Cl)cn1 [compound 65],99,97,100,100,94
N#Cc1cnn(-c2ncc(-c3ccccc3NC(=O)c3ncccc3C(F)(F)F)cc2F)c1 [compound 85],70,0,45,99,0
COc1cc(C(F)(F)F)nn1-c1ccc(-c2ccccc2NC(=O)c2ncccc2C(F)(F)F)cn1 [compound 48],0,0,73,0,56
O=C(Nc1ccccc1-c1ccc(-n2cc(Cl)cn2)nc1)c1ncccc1Cl [compound 67],7,0,62,90,0
O=C(Nc1ccccc1-c1ccc(-n2ccc(-c3ccccc3)n2)nc1)c1ncccc1Cl [compound 53],0,0,0,55,0
Cc1cc(-c2ccccc2NC(=O)c2ccccc2C(F)(F)F)cnc1-n1cc(Cl)cn1 [compound 63],27,0,92,99,72
COc1cccc(-c2cnn(-c3ccc(-c4ccccc4NC(=O)c4cn(C)nc4C(F)F)cn3)c2)c1 [compound 9],100,100,100,100,100
O=C(Nc1ccccc1-c1ccc(-n2cc(-c3cc(F)cc(F)c3)cn2)nc1)c1ncccc1C(F)(F)F [compound 28],99,99,100,99,96
O=C(Nc1ccccc1-c1cnc(-n2ccc(Cl)n2)c(F)c1)c1ccccc1C(F)(F)F [compound 77],74,0,100,100,98
Cn1cc(C(=O)Nc2ccccc2-c2cnc(-n3ccc(Br)n3)c(F)c2)c(C(F)F)n1 [compound 75],99,98,100,100,100
O=C(Nc1ccccc1-c1ccc(-n2ccc(C(F)(F)F)n2)nc1)c1ncccc1Cl [compound 23],20,0,100,96,99
